The text below walks through data of ChEMBL document CHEMBL3832056, “DailyMed|setid=5ad109ec-1fff-498c-bc91-e2e5481122bc | RAMIPRIL- ramipril capsule|Lake Erie Medical DBA Quality Care Products LLC”.

Data set [1] relates to Homo sapiens. Kind of data set: Half-life of Ramiprilat, active metabolite of Ramipril, evaluated after oral administration of multiple doses of 5 mg Ramipril. It is filed as ADME, organism-based. Conditions: in vivo, dose 5 to 10 mg, dosed compound id 51, dosed compound name RAMIPRIL, regimen Multiple dose, tissue Plasma.
Data set [2] concerns Homo sapiens. Kind of data set: Pharmacokinetic parameters for Ramipril, and its active metabolite Ramiprilat evaluated after oral administration of Ramipril. It is filed as ADME, organism-based. Conditions: in vivo, dosed compound id 51, dosed compound name RAMIPRIL, regimen Single dose; for F: at 5 mg.

On to `C[C@H](N[C@@H](CCc1ccccc1)C(=O)O)C(=O)N1[C@H](C(=O)O)C[C@@H]2CCC[C@@H]21` [RAMIPRILAT], for which, in the data set on Homo sapiens [1], the t1/2 fell in the range of 13 to 17 h. In addition, in the data set on Homo sapiens [2] (tissue Plasma), the F is reported as 44% and the Tmax was 2 to 4 h.
Consider `CCOC(=O)[C@H](CCc1ccccc1)N[C@@H](C)C(=O)N1[C@H](C(=O)O)C[C@@H]2CCC[C@@H]21` [RAMIPRIL], for which, in the data set with Homo sapiens [2] (tissue Plasma), the F was determined as 28%, the Absorption fell in the range of 50 to 60% and the Tmax stood at 1 h. Besides, in the data set with Homo sapiens [2] (tissue Feces), the Excretion was 40%. Also, the Excretion in the data set with Homo sapiens [2] (tissue Urine) was 60%.

As usually defined, the Tmax is the time at which the peak concentration occurs.
